Key:
Type in all cases: in vivo
[1] = tested on: pigweed (Amaranthus retroflexus); assay: Test A preemergence
Excerpt: (§1) Seeds of plant species selected from barnyardgrass (Echinochloa crus-galli), Kochia (Kochia scoparia), ragweed (common ragweed, Ambrosia elatior), ryegrass, Italian (Italian ryegrass, Lolium multiflorum), crabgrass, large (Digitaria sanguinalis), giant foxtail (Setaria faberii), green foxtail (Setaria viridis), morningglory (Ipomoea spp.), pigweed (Amaranthus retroflexus), velvetleaf (Abutilon theophrasti), wheat (Triticum aestivum), and corn (Zea mays) were planted into a blend of loam soil and sand and treated preemergence with a directed soil spray using test chemicals formulated in anon-phytotoxic solvent mixture which included a surfactant.
(§2) At the same time, plants selected from these crop and weed species and also blackgrass (Alopecurus myosuroides), and Galium (catchweed bedstraw, Galium aparine) were planted in pots containing the same blend of loam soil and sand and treated with postemergence applications of test chemicals formulated in the same manner. Plants ranged in height from 2 to 10 cm and were in the one- to two-leaf stage for the postemergence treatment. Treated plants and untreated controls were maintained in a greenhouse for approximately 10 d, after which time all treated plants were compared to untreated controls and visually evaluated for injury. Plant response ratings, summarized in Table A, are based on a 0 to 100 scale where 0 is no effect and 100 is complete control. A dash (-) response means no test result.

[2] = tested on: ragweed (common ragweed, Ambrosia elatior); assay: Test A preemergence
Excerpt: as §1, §2

[3] = tested on: ryegrass, Italian (Italian ryegrass, Lolium multiflorum); assay: Test A preemergence
Excerpt: as §1, §2

[4] = tested on: barnyardgrass (Echinochloa crus-galli); assay: Test A preemergence
Excerpt: as §1, §2

[5] = tested on: giant foxtail (Setaria faberii); assay: Test A preemergence
Excerpt: as §1, §2

Kochia (Kochia scoparia) [6] = assay: Test A preemergence
Excerpt: as §1, §2

[7] = tested on: pigweed (Amaranthus retroflexus); assay: Test A postemergence
Excerpt: as §1, §2

[8] = tested on: ragweed (common ragweed, Ambrosia elatior); assay: Test A postemergence
Excerpt: as §1, §2

[9] = tested on: ryegrass, Italian (Italian ryegrass, Lolium multiflorum); assay: Test A postemergence
Excerpt: as §1, §2

corn (Zea mays) = assay: Test A postemergence; details: postemergence
Excerpt: as §1, §2

[10] = tested on: barnyardgrass (Echinochloa crus-galli); assay: Test A postemergence; details: postemergence
Excerpt: as §1, §2

[11] = tested on: blackgrass (Alopecurus myosuroides); assay: Test A postemergence; details: postemergence
Excerpt: as §1, §2

[12] = tested on: giant foxtail (Setaria faberii); assay: Test A postemergence
Excerpt: as §1, §2

[13] = tested on: wheat (Triticum aestivum); assay: Test A postemergence
Excerpt: as §1, §2

[14] = tested on: Galium (catchweed bedstraw, Galium aparine); assay: Test A postemergence
Excerpt: as §1, §2

Kochia (Kochia scoparia) [15] = assay: Test A postemergence
Excerpt: as §1, §2

[16] = tested on: ducksalad (Heteranthera limosa); assay: Test B flooded paddy test; details: Flood, 250 g ai/ha; 0 to 100 scale where 0 is no effect and 100 is complete control; 13 to 15 d
In short: (§3)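 Plants at 2-leaf stage flooded to 3 cm above soil, with compounds applied directly to paddy water and that depth maintained. Plants kept in greenhouse 13–15 d. Visual rating versus controls on a 0 (no effect) to 100 (complete control) scale.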

rice (Oryra sativa) = assay: Test B flooded paddy test; details: Flood, 250 g ai/ha; 0 to 100 scale where 0 is no effect and 100 is complete control; 13 to 15 d
In short: as §3

[17] = tested on: sedge, umbrella (small-flower umbrella sedge, Cyperus difformis); assay: Test B flooded paddy test; details: Flood, 250 g ai/ha; 0 to 100 scale where 0 is no effect and 100 is complete control; 13 to 15 d
In short: as §3

[18] = tested on: barnyardgrass (Echinochloa crus-galli); assay: Test B flooded paddy test; details: Flood, 250 g ai/ha; 0 to 100 scale where 0 is no effect and 100 is complete control; 13 to 15 d
In short: as §3

[19] = 125 g ai/ha, Preemergence, visual injury after approximately 10 d, 0 to 100 scale where 0 is no effect and 100 is complete control
[20] = Preemergence, 500 g ai/ha, visual injury approx. 10 d
[21] = 125 g ai/ha, preemergence, 0 to 100 scale (0 no effect, 100 complete control)
[22] = 125 g ai/ha, postemergence, visual injury rating on 0 to 100 scale (0 no effect, 100 complete control), approx. 10 d
[23] = Postemergence, 500 g ai/ha, 0 to 100 scale where 0 is no effect and 100 is complete control
[24] = 125 g ai/ha, visual injury rating on 0 to 100 scale (0 no effect, 100 complete control), approx. 10 d
[25] = 500 g ai/ha, 0 to 100 scale, 0 no effect, 100 complete control
[26] = 500 g ai/ha, preemergence, 0 to 100 scale, 0 = no effect, 100 = complete control
[27] = 125 g ai/ha, postemergence, visual rating after approx. 10 d, 0 to 100 scale (0 no effect, 100 complete control)
[28] = 500 g ai/ha, postemergence, visual injury, 0 to 100 scale (0 no effect, 100 complete control), approx. 10 d
[29] = 125 g ai/ha, visual rating after approx. 10 d, 0 to 100 scale (0 no effect, 100 complete control)
[30] = 500 g ai/ha, visual injury, 0 to 100 scale (0 no effect, 100 complete control), approx. 10 d

## CN1CC(c2ccc(C(F)(F)F)cc2F)C(C(=O)Nc2cccc(F)c2F)C1=O (stereo not drawn) [Compound 472]
[1]; [19]
  Plant response rating, Pigweed: 80
[1]; [20]
  Pigweed plant response rating (0 to 100 scale, 0 is no effect, 100 is complete control): 90
[2]; [19]
  Plant response rating, Ragweed: 0
[2]; [20]
  Ragweed plant response rating (0 to 100 scale, 0 is no effect, 100 is complete control): 50
[3]; [19]
  Plant response rating, Ryegrass, Italian: 50
[3]; [20]
  Ryegrass, Italian plant response rating (0 to 100 scale, 0 is no effect, 100 is complete control): 80
[4]; [21]
  Plant response rating, Barnyardgrass: 90
[4]; [20]
  Barnyardgrass plant response rating (0 to 100 scale, 0 is no effect, 100 is complete control): 90
[5]; [21]
  Plant response rating, Foxtail, Giant: 90
[5]; [20]
  Foxtail, Giant plant response rating (0 to 100 scale, 0 is no effect, 100 is complete control): 90
Kochia (Kochia scoparia) [6]; [21]
  Plant response rating, Kochia: 80
Kochia (Kochia scoparia) [6]; [20]
  Kochia plant response rating (0 to 100 scale, 0 is no effect, 100 is complete control): 80
[7]; [22]
  Pigweed plant response rating: 60
[7]; [23]
  Plant response rating, Pigweed: 60
[8]; [22]
  Ragweed plant response rating: 0
[8]; [23]
  Plant response rating, Ragweed: 0
[9]; [22]
  Ryegrass, Italian plant response rating: 40
[9]; [23]
  Plant response rating, Ryegrass, Italian: 60
Corn (Zea mays); [24]
  Corn plant response rating: 40
Corn (Zea mays); [25]
  Plant response rating, Corn: 80
[10]; [24]
  Barnyardgrass plant response rating: 90
[10]; [25]
  Plant response rating, Barnyardgrass: 90
[11]; [24]
  Blackgrass plant response rating: 30
[11]; [25]
  Plant response rating, Blackgrass: 60
[12]; [22]
  Foxtail, Giant plant response rating: 80
[12]; [23]
  Plant response rating, Foxtail, Giant: 90
[13]; [22]
  Wheat plant response rating: 30
[13]; [23]
  Plant response rating, Wheat: 60
[14]; [22]
  Galium plant response rating: 50
[14]; [23]
  Plant response rating, Galium: 50
Kochia (Kochia scoparia) [15]; [22]
  Kochia plant response rating: 60
Kochia (Kochia scoparia) [15]; [23]
  Plant response rating, Kochia: 70
[16]
  Plant response rating, Ducksalad: 75
Rice (Oryra sativa)
  Plant response rating, Rice: 20
[17]
  Plant response rating, Sedge, Umbrella: 0
[18]
  Plant response rating, Barnyardgrass: 60

## Cc1cccc(C2CN(C)C(=O)C2C(=O)Nc2ccccc2S(C)(=O)=O)c1 (stereo not drawn) [Compound 668]
[1]; [19]
  Plant response rating, Pigweed: 20
[1]; [26]
  Plant response rating, Pigweed: 50
[2]; [19]
  Plant response rating, Ragweed: 0
[2]; [26]
  Plant response rating, Ragweed: 40
[3]; [19]
  Plant response rating, Ryegrass, Italian: 0
[3]; [26]
  Plant response rating, Ryegrass, Italian: 0
[4]; [19]
  Plant response rating, Barnyardgrass: 90
[4]; [26]
  Plant response rating, Barnyardgrass: 90
[5]; [19]
  Plant response rating, Foxtail, Giant: 90
[5]; [26]
  Plant response rating, Foxtail, Giant: 100
Kochia (Kochia scoparia) [6]; [19]
  Plant response rating, Kochia: 20
Kochia (Kochia scoparia) [6]; [26]
  Plant response rating, Kochia: 70
[7]; [27]
  Plant response rating, Pigweed: 0
[7]; [28]
  Plant response rating, Pigweed: 0
[8]; [27]
  Plant response rating, Ragweed: 0
[8]; [28]
  Plant response rating, Ragweed: 0
[9]; [27]
  Plant response rating, Ryegrass, Italian: 0
[9]; [28]
  Plant response rating, Ryegrass, Italian: 70
Corn (Zea mays); [29]
  Plant response rating, Corn: 20
Corn (Zea mays); [30]
  Plant response rating, Corn: 80
[10]; [29]
  Plant response rating, Barnyardgrass: 90
[10]; [30]
  Plant response rating, Barnyardgrass: 90
[11]; [29]
  Plant response rating, Blackgrass: 60
[11]; [30]
  Plant response rating, Blackgrass: 70
[12]; [27]
  Plant response rating, Foxtail, Giant: 90
[12]; [28]
  Plant response rating, Foxtail, Giant: 90
[13]; [27]
  Plant response rating, Wheat: 20
[13]; [28]
  Plant response rating, Wheat: 60
[14]; [27]
  Plant response rating, Galium: 20
[14]; [28]
  Plant response rating, Galium: 70
Kochia (Kochia scoparia) [15]; [27]
  Plant response rating, Kochia: 20
Kochia (Kochia scoparia) [15]; [28]
  Plant response rating, Kochia: 20
[16]
  Plant response rating, Ducksalad: 98
Rice (Oryra sativa)
  Plant response rating, Rice: 0
[17]
  Plant response rating, Sedge, Umbrella: 0
[18]
  Plant response rating, Barnyardgrass: 70
